These results are taken from ChEMBL document CHEMBL1909046, “DrugMatrix in vitro pharmacology data”.

pIC50, pKi: −log10 of the molar value.

For series [1], the target named is T1, Alpha-1D adrenergic receptor (Homo sapiens, UniProt P25100). Also: in other assays of this panel Not Active means under 50% inhibition at 10 µM.
T1 sequence (P25100 whole entry): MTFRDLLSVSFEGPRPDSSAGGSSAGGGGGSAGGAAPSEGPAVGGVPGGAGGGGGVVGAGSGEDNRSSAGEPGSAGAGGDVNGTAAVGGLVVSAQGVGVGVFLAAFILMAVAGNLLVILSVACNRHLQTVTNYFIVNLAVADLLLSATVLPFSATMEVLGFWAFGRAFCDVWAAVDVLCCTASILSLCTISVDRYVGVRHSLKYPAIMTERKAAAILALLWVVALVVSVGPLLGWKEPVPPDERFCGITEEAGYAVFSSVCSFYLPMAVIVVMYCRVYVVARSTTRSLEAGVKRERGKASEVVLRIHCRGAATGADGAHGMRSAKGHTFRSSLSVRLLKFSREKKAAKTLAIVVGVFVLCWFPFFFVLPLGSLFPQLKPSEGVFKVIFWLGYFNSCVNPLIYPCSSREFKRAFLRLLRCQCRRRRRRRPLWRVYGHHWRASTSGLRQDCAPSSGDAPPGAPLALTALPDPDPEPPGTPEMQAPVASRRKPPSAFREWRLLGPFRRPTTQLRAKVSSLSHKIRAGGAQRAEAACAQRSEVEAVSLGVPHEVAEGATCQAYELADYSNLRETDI
The class given is cell membranes, HEK293, Membrane. Conditions: for IC50: hek293.

Series [2] is described as follows: DRUGMATRIX: Tumor Necrosis Factor (TNF), Non-Selective radioligand binding (ligand: [125I] TNF-alpha). Type of series: cell membranes, Membrane. To be noted: u-937; Not Active = under 50% inhibition at 10 µM.
The target of series [3] is T2, C-X-C chemokine receptor type 2 (Homo sapiens, UniProt P25025). Also: in other assays of this panel Not Active means under 50% inhibition at 10 µM.
T2 sequence (P25025 whole entry): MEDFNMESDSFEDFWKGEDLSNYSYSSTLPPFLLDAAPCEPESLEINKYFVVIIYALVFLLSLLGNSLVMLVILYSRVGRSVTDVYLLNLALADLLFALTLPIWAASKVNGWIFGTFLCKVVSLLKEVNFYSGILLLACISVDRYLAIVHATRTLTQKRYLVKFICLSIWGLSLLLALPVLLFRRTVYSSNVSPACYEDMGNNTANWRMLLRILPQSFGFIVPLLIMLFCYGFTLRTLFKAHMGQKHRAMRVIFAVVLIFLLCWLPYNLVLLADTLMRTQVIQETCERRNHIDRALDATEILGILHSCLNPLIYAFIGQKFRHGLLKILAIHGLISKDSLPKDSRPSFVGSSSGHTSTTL
The class given is cell membranes, Membrane. To be noted: cho-k1.

Another series has as its target Glycine receptor (Rattus norvegicus, UniProt P22771+P24524+P07727+P20781). Type of series: cell membranes, Wistar, Spinal cord, Membrane. Also: in other assays of this panel Not Active means under 50% inhibition at 10 µM.
For another series, the target named is T3, Leukotriene C4 synthase (Cavia porcellus, UniProt A6XA80).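 Also: enzyme inhibition assay of leukotriene C4 synthase, using LTA4 as the substrate; in other assays of this panel Not Active means under 50% inhibition at 10 µM.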
T3 sequence (A6XA80 whole entry): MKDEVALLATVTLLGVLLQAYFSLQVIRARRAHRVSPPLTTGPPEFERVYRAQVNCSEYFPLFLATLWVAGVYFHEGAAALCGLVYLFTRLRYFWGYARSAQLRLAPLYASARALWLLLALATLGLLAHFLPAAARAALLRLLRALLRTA
The class given is tissue-based, Lung.

The target of another series is T4, Cathepsin G (Homo sapiens, UniProt P08311).
T4 sequence (P08311 whole entry): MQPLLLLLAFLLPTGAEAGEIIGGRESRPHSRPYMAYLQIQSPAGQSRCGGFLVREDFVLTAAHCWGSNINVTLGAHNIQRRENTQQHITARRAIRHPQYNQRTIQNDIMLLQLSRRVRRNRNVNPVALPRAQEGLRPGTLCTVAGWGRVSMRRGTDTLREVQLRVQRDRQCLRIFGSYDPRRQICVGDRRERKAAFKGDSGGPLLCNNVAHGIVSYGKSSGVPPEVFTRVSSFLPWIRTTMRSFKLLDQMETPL
Type of series: tissue-based. To be noted: neutrophil.

In a further series the target is T5, Neutrophil elastase (Homo sapiens, UniProt P08246).
T5 sequence (P08246 whole entry): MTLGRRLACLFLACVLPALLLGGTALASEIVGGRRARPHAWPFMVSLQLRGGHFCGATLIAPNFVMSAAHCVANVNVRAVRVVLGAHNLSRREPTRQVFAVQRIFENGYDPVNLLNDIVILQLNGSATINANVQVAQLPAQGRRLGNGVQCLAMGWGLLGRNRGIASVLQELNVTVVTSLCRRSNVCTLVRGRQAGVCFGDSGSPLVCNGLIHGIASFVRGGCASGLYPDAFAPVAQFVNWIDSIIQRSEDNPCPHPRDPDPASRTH
Type of series: tissue-based.

Another series has as its target Cytochrome P450 2E1 (Homo sapiens, UniProt P05181). To be noted: bti-tn-5b1-4. Also: in other assays of this panel Not Active means under 50% inhibition at 10 µM.
A further series has as its target T6, Glucocorticoid receptor (Homo sapiens, UniProt P04150). Also: in other assays of this panel Not Active means under 50% inhibition at 10 µM.
T6 sequence (P04150 whole entry): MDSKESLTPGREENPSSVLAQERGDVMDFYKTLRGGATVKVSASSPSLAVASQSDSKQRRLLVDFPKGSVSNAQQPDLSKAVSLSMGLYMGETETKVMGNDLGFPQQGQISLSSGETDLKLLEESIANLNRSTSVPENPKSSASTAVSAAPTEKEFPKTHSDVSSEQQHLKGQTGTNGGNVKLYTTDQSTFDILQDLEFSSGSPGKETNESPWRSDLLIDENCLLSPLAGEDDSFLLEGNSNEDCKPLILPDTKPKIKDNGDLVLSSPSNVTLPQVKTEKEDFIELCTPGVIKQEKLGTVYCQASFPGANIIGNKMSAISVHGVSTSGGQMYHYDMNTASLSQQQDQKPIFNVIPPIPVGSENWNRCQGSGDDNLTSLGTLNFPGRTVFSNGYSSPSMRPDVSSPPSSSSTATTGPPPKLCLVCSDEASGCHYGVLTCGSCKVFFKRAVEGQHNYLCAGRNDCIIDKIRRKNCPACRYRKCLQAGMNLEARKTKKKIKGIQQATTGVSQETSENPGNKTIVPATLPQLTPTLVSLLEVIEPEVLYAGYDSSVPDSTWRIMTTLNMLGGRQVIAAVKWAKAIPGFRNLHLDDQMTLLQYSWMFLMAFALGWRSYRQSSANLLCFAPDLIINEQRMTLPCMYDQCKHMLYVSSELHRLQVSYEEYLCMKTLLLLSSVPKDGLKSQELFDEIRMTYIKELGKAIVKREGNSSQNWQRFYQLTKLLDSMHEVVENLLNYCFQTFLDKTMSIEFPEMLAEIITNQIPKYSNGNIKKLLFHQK
Conditions: hela s3.

Sequence of Cytochrome P450 2E1 (P05181 whole entry): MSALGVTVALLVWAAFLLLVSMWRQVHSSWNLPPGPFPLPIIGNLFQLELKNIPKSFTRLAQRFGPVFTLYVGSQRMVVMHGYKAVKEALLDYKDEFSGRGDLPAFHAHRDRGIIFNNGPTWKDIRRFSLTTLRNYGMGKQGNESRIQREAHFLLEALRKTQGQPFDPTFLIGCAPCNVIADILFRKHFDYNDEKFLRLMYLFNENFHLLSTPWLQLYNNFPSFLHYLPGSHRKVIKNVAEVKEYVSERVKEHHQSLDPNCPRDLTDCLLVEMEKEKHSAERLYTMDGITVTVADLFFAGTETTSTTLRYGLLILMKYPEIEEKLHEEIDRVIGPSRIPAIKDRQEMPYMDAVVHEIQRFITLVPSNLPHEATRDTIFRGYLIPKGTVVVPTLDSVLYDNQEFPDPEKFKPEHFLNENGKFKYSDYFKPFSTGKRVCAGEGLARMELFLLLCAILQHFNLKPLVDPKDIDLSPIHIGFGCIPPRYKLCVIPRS

As for `C[C@H]1O[C@H](O[C@H]2[C@H](O)[C@@H](O)[C@@H](O[C@H]3[C@H](O)[C@@H](O)C(O)O[C@@H]3CO)O[C@@H]2CO)[C@H](O)[C@@H](O)[C@@H]1N[C@H]1C=C(CO)[C@@H](O)[C@H](O)[C@H]1O` (some centres not stated) [ACARBOSE], the IC50 result (in [1]; in series [2]; in series [3]; against Glycine receptor; against Leukotriene C4 synthase; against Cathepsin G) was “Not Active” each time. Also, the IC50 entry at Neutrophil elastase, on Cytochrome P450 2E1 and against Glucocorticoid receptor was “Not Active” each time. The Ki entry (in [2]; on Cytochrome P450 2E1) was “Not Active” each time.

On to `CC[C@H]1[C@@H]2C[C@H]3[C@@H]4N(C)c5ccccc5[C@]45C[C@@H]([C@@H]2[C@H]5O)N3[C@@H]1O` [AJMALINE], for which the IC50 entry (in series [1]; in series [2]; in [3]; on Glycine receptor; against Leukotriene C4 synthase; against Cathepsin G) was “Not Active” each time. In addition, the IC50 result at Neutrophil elastase, against Cytochrome P450 2E1 and against Glucocorticoid receptor was “Not Active” each time. The Ki result (in series [2]; on Cytochrome P450 2E1) was “Not Active” in each case.

With `NCCCNCCSP(=O)(O)O` [AMIFOSTINE], the IC50 entry (in [1]; in [2]; in series [3]; against Glycine receptor; against Leukotriene C4 synthase; against Cathepsin G) was “Not Active” in each case. Further, the IC50 result at Neutrophil elastase, against Cytochrome P450 2E1 and at Glucocorticoid receptor was “Not Active” throughout. In addition, the Ki result (in series [2]; at Cytochrome P450 2E1) was “Not Active” throughout.

Turning to `CN(C)CCC=C1c2ccccc2CCc2ccccc21` [AMITRIPTYLINE], the negative logarithm of the IC50 (pIC50) in [1] (read-out: IC50) is 6.98. Further, the pKi in series [1] (read-out: Ki) is 7.28. Further, the IC50 entry (in series [2]; in series [3]; against Glycine receptor; against Leukotriene C4 synthase; against Cathepsin G; on Neutrophil elastase) was “Not Active” in each case. Further, the IC50 result at Cytochrome P450 2E1 and on Glucocorticoid receptor was “Not Active” each time. In addition, the Ki result (in series [2]; at Cytochrome P450 2E1) was “Not Active” in each case.

Consider `CC(=O)Oc1ccccc1C(=O)O` [ASPIRIN], for which the IC50 entry (in [1]; in [2]; in series [3]; on Glycine receptor; on Leukotriene C4 synthase; against Cathepsin G) was “Not Active” throughout. For the same molecule, the IC50 result against Neutrophil elastase, on Cytochrome P450 2E1 and at Glucocorticoid receptor was “Not Active” throughout. Also, the Ki entry (in series [2]; on Cytochrome P450 2E1) was “Not Active” throughout.

For the molecule `CC(C)c1c(C(=O)Nc2ccccc2)c(-c2ccccc2)c(-c2ccc(F)cc2)n1CC[C@@H](O)C[C@@H](O)CC(=O)O` [ATORVASTATIN], the IC50 result (in series [1]; in [2]; in series [3]; on Glycine receptor; against Leukotriene C4 synthase; against Cathepsin G) was “Not Active” each time. In addition, the IC50 result on Neutrophil elastase, against Cytochrome P450 2E1 and on Glucocorticoid receptor was “Not Active” each time. The Ki entry (in series [2]; at Cytochrome P450 2E1) was “Not Active” in each case.

In the case of `CC(=O)OC[C@H]1O[C@@H](n2ncc(=O)[nH]c2=O)[C@H](OC(C)=O)[C@@H]1OC(C)=O` [AZARIBINE], the IC50 entry (in series [1]; in [2]; in series [3]; on Glycine receptor; against Leukotriene C4 synthase; against Cathepsin G) was “Not Active” in each case. The IC50 result against Neutrophil elastase, against Cytochrome P450 2E1 and on Glucocorticoid receptor was “Not Active” throughout. The Ki result (in [2]; at Cytochrome P450 2E1) was “Not Active” throughout.

Regarding `C[C@H]1[C@H](NC(=O)/C(=N\OC(C)(C)C(=O)O)c2csc(N)n2)C(=O)N1S(=O)(=O)O` [AZTREONAM], the IC50 result (in series [1]; in series [2]; in series [3]; at Glycine receptor; on Leukotriene C4 synthase; at Cathepsin G) was “Not Active” in each case. For the same molecule, the IC50 result against Neutrophil elastase, against Cytochrome P450 2E1 and on Glucocorticoid receptor was “Not Active” in each case. The Ki result (in [2]; at Cytochrome P450 2E1) was “Not Active” each time.

With `O=C(O)CCNC(=O)c1ccc(/N=N/c2ccc(O)c(C(=O)O)c2)cc1` [BALSALAZIDE], the IC50 entry (in series [1]; in series [2]; in series [3]; against Glycine receptor; against Leukotriene C4 synthase; on Cathepsin G) was “Not Active” in each case. Besides, the IC50 result at Neutrophil elastase, on Cytochrome P450 2E1 and against Glucocorticoid receptor was “Not Active” in each case. The Ki result (in [2]; at Cytochrome P450 2E1) was “Not Active” in each case.

Consider `COc1cc(OC)c(C(=O)CCCN2CCCC2)c(OC)c1` [BUFLOMEDIL], for which the IC50 result (in [1]; in series [2]; in series [3]; against Glycine receptor; on Leukotriene C4 synthase; at Cathepsin G) was “Not Active” each time. For the same molecule, the IC50 entry on Neutrophil elastase, against Cytochrome P450 2E1 and at Glucocorticoid receptor was “Not Active” each time. Besides, the Ki entry (in series [2]; at Cytochrome P450 2E1) was “Not Active” each time.

`Cn1c(=O)c2c(ncn2C)n(C)c1=O` [CAFFEINE]: the IC50 result (in series [1]; in series [2]; in series [3]; at Glycine receptor; against Leukotriene C4 synthase; against Cathepsin G) was “Not Active” throughout. Besides, the IC50 entry against Neutrophil elastase, against Cytochrome P450 2E1 and against Glucocorticoid receptor was “Not Active” each time. The Ki entry (in [2]; on Cytochrome P450 2E1) was “Not Active” throughout.
